In patent publication US20150045409A1, “AMIDE COMPOUND AND USE THEREOF FOR PEST CONTROL” (SUMITOMO CHEMICAL COMPANY, LIMITED, priority 2012, published 2015):

Tests used:
Format in all cases: in vivo
[1] = test system: German cockroaches (Blattella germanica); test: Spray knockdown test on German cockroaches (Test Examples 1, 2); details: 5 min, 1.5 ml sprayed, counted after 5 minutes, read-out: knockdown rate; for pest or weed control at 0.5 %: active ingredient 0.5% w/v oil solution; for pest or weed control at 2 %: active ingredient 2.0% w/v oil solution
Method: The formulations of Compounds (7), (46), (48) and (54) of the present invention obtained in Formulation Example 7 were diluted with a mixture solution of isopropyl alcohol/deodorized kerosene of 1/9, so as to have a concentration of active ingredient of 2.0% w/v, to prepare a test drug solution.
Ten German cockroaches (Blattella germanica) (5 males and 5 females) were released in a test container (8.75 cm in diameter, 7.5 cm in height, and the bottom made of 16 mesh metallic wire) with the inner wall on which butter was applied, and the container was placed on the bottom of a test chamber (bottom: 46 cm×46 cm, height: 70 cm). From a height of 60 cm above the upper surface of the container, 1.5 ml of the test drug solution was sprayed using a spray gun (a spraying pressure of 0.42 kg/cm^2). Thirty seconds after spraying, the container was taken out from the test chamber, and after 5 minutes, the number of knockdown insects was counted to obtain a knockdown rate. The knockdown rate was calculated by the following equation.
(§1) Knockdown Rate(%)=(Number of Knockdown Insects/Number of Tested Insects)×100
The formulations of Compounds (1), (2), (4), (6) to (8), (10) to (14), (17) to (20), (23) to (25), (28), (31) to (33), (39) to (42), (44) and (50) to (53) of the present invention obtained in Formulation Example 7 were diluted with a mixture solution with a ratio of isopropyl alcohol/deodorized kerosene of 1/9, so as to have a concentration of active ingredient of 0.5% w/v, to prepare a test drug solution.
The test was performed in the same manner as in Test Example 1.

[2] = test system: adult houseflies (Musca domestica); test: Filter paper/sucrose bait knockdown test on adult houseflies (Test Example 7); details: 0.7 ml on filter paper with sucrose bait, after 2 hours, read-out: knockdown rate
Method: (§2) Each of the formulations of Compounds (2), (4) to (6), (8), (9), (18), (21) to (23), (27), (29), (32) to (36), (38), (41), (42) and (53) of the present invention obtained in Formulation Example 15 was diluted with water, so as to have a concentration of active ingredient of 500 ppm, to prepare a test drug solution.
(§3) On the bottom of a polyethylene cup with a diameter of 5.5 cm, a filter paper of the same size was laid down, and 0.7 ml of the test drug solution was dropped onto the filter paper, then 30 mg of sucrose was uniformly put as bait. Ten adult houseflies (Musca domestica) were released in the polyethylene cup which was then capped. After 2 hours, the number of knockdown insects was counted to obtain a knockdown rate. The knockdown rate was calculated by the following equation.
as §1

[3] = test system: adult houseflies; test: Spray knockdown test on adult houseflies (Test Examples 3, 4); details: Musca domestica, 10 min, 0.5 ml sprayed, counted after 10 minutes, read-out: knockdown rate; for pest or weed control at 0.5 %: active ingredient 0.5% w/v oil solution; for pest or weed control at 2 %: active ingredient 2.0% w/v oil solution
Method: The formulations of Compounds (7), (46) and (48) of the present invention obtained in Formulation Example 7 were diluted with a mixture solution with a ratio of isopropyl alcohol/deodorized kerosene of 1/9, so as to have a concentration of active ingredient of 2.0% w/v, to prepare a test drug solution.
Ten adult houseflies (5 males and 5 females) were released in a polyethylene cup (a bottom diameter of 10.6 cm) which was then capped with 16-mesh nylon gauze. The polyethylene cup was placed on the bottom of a test chamber (bottom: 46 cm×46 cm, height: 70 cm). From a height of 30 cm above the upper surface of the polyethylene cup, 0.5 ml of the test drug solution was sprayed using a spray gun (a spraying pressure of 0.9 kg/cm^2). Immediately after spraying, the cup was taken out from the test container, and after 10 minutes, the number of knockdown insects was counted to obtain a knockdown rate. The knockdown rate was calculated by the following equation.
as §1
The formulations of Compounds (4), (6), (8), (17) to (19), (28), (29), (33), (40) to (42) and (51) to (53) of the present invention obtained in Formulation Example 7 were diluted with a mixture solution with a ratio of isopropyl alcohol/deodorized kerosene of 1/9, so as to have a concentration of active ingredient of 0.5% w/v, to prepare a test drug solution. The test was performed in the same manner as in Test Example 3.

[4] = test system: last instar larvae of common house mosquitoes (Culex pipiens pallens); test: Larvicidal test on common house mosquito larvae in water (Test Examples 9, 10); details: active ingredient 3.5 ppm in water
Method: Each of the formulations of Compounds (26) and (45) of the present invention obtained in Formulation Example 15 was diluted with water, so as to have a concentration of active ingredient of 500 ppm, to prepare a test drug solution.
0.7 ml of the test drug solution was added to 100 ml of ion-exchanged water (a concentration of active ingredient of 3.5 ppm).
Each of the formulations of Compounds (5), (6), (24), (27), (29), (30), (33), (38) and (47) of the present invention obtained in Formulation Example 15 was diluted with water, so as to have a concentration of active ingredient of 500 ppm, to prepare a test drug solution.

[5] = test system: adult houseflies (Musca domestica); test: Filter paper/sucrose bait mortality test on adult houseflies (Test Example 8); details: 0.7 ml on filter paper with sucrose bait, after 24 hours
Method: as §2, with “(2)” for “(2), (4)”, “(12), (15) to” for “(9),”, “(18),” for “(18), (21) to (23),”, “(33), (37)” for “(32)”, “(39),” for “(36), (38),”, “(45)” for “(53)”
as §3, with “capped.” for “capped. After 2 hours, the number of knockdown insects was counted to obtain a knockdown rate. The knockdown rate was calculated by the following equation.”

## CCCCC/C=C/C(=O)NCC1CCOC1 (stereo not drawn) [Compound (1), (E)-N-(tetrahydrofuran-3-ylmethyl)-2-octenamide]
[1]
  pest or weed control at 0.5 %: ≥ 70%

## CCCCCC/C=C/C(=O)NCC1CCOC1 (stereo not drawn) [Compound (2), (E)-N-(tetrahydrofuran-3-ylmethyl)-2-nonenamide]
[1]
  pest or weed control at 0.5 %: ≥ 70%
[2]
  pest or weed control at 500 ppm: 100%

## CCCCCCC/C=C/C(=O)NCC1CCOC1 (stereo not drawn) [Compound (4), (E)-N-(tetrahydrofuran-3-ylmethyl)-2-decenamide]
[3]
  pest or weed control at 0.5 %: ≥ 80%
[1]
  pest or weed control at 0.5 %: ≥ 70%

## CCCCCCCC/C=C/C(=O)NCC1CCOC1 (stereo not drawn) [Compound (5), (E)-N-(tetrahydrofuran-3-ylmethyl)-2-undecenamide]
[4]; 192 h, after 8 days
  mortality at 3.5 ppm: ≥ 95%

## CCCCCC/C(C)=C/C(=O)NCC1CCOC1 (stereo not drawn) [Compound (6), (E)-N-(tetrahydrofuran-3-ylmethyl)-3-methyl-2-nonenamide]
[3]
  pest or weed control at 0.5 %: ≥ 80%
[4]; 192 h, after 8 days
  mortality at 3.5 ppm: ≥ 95%

## CCCCCC/C=C(\F)C(=O)NCC1CCOC1 (stereo not drawn) [Compound (7), (Z)—N-(tetrahydrofuran-3-ylmethyl)-2-fluoro-2-nonenamide]
[3]
  pest or weed control at 2 %: ≥ 80%
[1]
  pest or weed control at 2 %: ≥ 80%

## CCCCCC/C(C)=C(\F)C(=O)NCC1CCOC1 (stereo not drawn) [Compound (8), (Z)—N-(tetrahydrofuran-3-ylmethyl)-2-fluoro-3-methyl-2-nonenamide]
[3]
  pest or weed control at 0.5 %: ≥ 80%
[5]
  mortality at 500 ppm: ≥ 90%
[2]
  pest or weed control at 500 ppm: 100%

## CCCCCC/C(C)=C(/F)C(=O)NCC1CCOC1 (stereo not drawn) [Compound (9), (E)-N-(tetrahydrofuran-3-ylmethyl)-2-fluoro-3-methyl-2-nonenamide]
[2]
  pest or weed control at 500 ppm: 100%

## C=CCCCCC/C=C/C(=O)NCC1CCOC1 (stereo not drawn) [Compound (12), (E)-N-(tetrahydrofuran-3-ylmethyl)-deca-2,9-dienamide]
[5]
  mortality at 500 ppm: ≥ 90%

## CCCC1CC1/C=C/C(=O)NCC1CCOC1 (stereo not drawn) [Compound (18), (E)-N-(tetrahydrofuran-3-ylmethyl)-3-(trans-2′-propylcyclopropyl)-2-propenamide]
[2]
  pest or weed control at 500 ppm: 100%

## CCCCC/C=C/C(=O)NCC1CCOCC1 [Compound (24), (E)-N-(tetrahydropyran-4-ylmethyl)-2-octenamide]
[4]; 192 h, after 8 days
  mortality at 3.5 ppm: ≥ 95%

## CCCCCCC/C=C/C(=O)NCC1CCOCC1 [Compound (26), (E)-N-(tetrahydropyran-4-ylmethyl)-2-decenamide]
[4]; after a day
  mortality at 3.5 ppm: ≥ 95%

## CCCCCCCC/C=C/C(=O)NCC1CCOCC1 [Compound (27), (E)-N-(tetrahydropyran-4-ylmethyl)-2-undecenamide]
[5]
  mortality at 500 ppm: ≥ 90%
[4]; 192 h, after 8 days
  mortality at 3.5 ppm: ≥ 95%
[2]
  pest or weed control at 500 ppm: 100%

## CCCCCC/C(C)=C/C(=O)NCC1CCOCC1 [Compound (28), (E)-N-(tetrahydropyran-4-ylmethyl)-3-methyl-2-nonenamide]
[3]
  pest or weed control at 0.5 %: ≥ 80%
[1]
  pest or weed control at 0.5 %: ≥ 70%

## CCCCCC/C(C)=C(\F)C(=O)NCC1CCOCC1 [Compound (29), (Z)—N-(tetrahydropyran-4-ylmethyl)-2-fluoro-3-methyl-2-nonenamide]
[3]
  pest or weed control at 0.5 %: ≥ 80%
[5]
  mortality at 500 ppm: ≥ 90%
[4]; 192 h, after 8 days
  mortality at 3.5 ppm: ≥ 95%
[2]
  pest or weed control at 500 ppm: 100%

## CCCCCC/C(C)=C(/F)C(=O)NCC1CCOCC1 [Compound (30), (E)-N-(tetrahydropyran-4-ylmethyl)-2-fluoro-3-methyl-2-nonenamide]
[4]; 192 h, after 8 days
  mortality at 3.5 ppm: ≥ 95%

## C=CCCCCC/C=C/C(=O)NCC1CCOCC1 [Compound (33), (E)-N-(tetrahydropyran-4-ylmethyl)-deca-2,9-dienamide]
[3]
  pest or weed control at 0.5 %: ≥ 80%
[5]
  mortality at 500 ppm: ≥ 90%
[4]; 192 h, after 8 days
  mortality at 3.5 ppm: ≥ 95%

## C#CCCCC/C=C/C(=O)NCC1CCOCC1 [Compound (38), (E)-N-(tetrahydropyran-4-ylmethyl)-non-2-en-8-ynamide]
[4]; 192 h, after 8 days
  mortality at 3.5 ppm: ≥ 95%
[2]
  pest or weed control at 500 ppm: 100%

## CCCC1CC1/C=C/C(=O)NCC1CCOCC1 (stereo not drawn) [Compound (41), (E)-N-(tetrahydropyran-4-ylmethyl)-3-(trans-2′-propylcyclopropyl)-2-propenamide]
[5]
  mortality at 500 ppm: ≥ 90%
[2]
  pest or weed control at 500 ppm: 100%

## CCCCC1CC1/C=C/C(=O)NCC1CCOCC1 (stereo not drawn) [Compound (42), (E)-N-(tetrahydropyran-4-ylmethyl)-3-(trans-2′-butylcyclopropyl)-2-propenamide]
[5]
  mortality at 500 ppm: ≥ 90%
[2]
  pest or weed control at 500 ppm: 100%

## CCC1CC1CC/C=C/C(=O)NCC1CCOCC1 (stereo not drawn) [Compound (44), (E)-N-(tetrahydropyran-4-ylmethyl)-5-(trans-2′-ethylcyclopropyl)-2-pentenamide]
[1]
  pest or weed control at 0.5 %: ≥ 70%

## CCCCCC/C=C/C(=O)NCC1CCCCO1 (stereo not drawn) [Compound (46), (E)-N-(tetrahydropyran-2-ylmethyl)-2-nonenamide]
[3]
  pest or weed control at 2 %: ≥ 80%
[1]
  pest or weed control at 2 %: ≥ 80%

## CCCCCC/C=C/C(=O)NCC1COCCO1 (stereo not drawn) [Compound (47), (E)-N-(1,4-dioxan-2-ylmethyl)-2-nonenamide]
[4]; 192 h, after 8 days
  mortality at 3.5 ppm: ≥ 95%

## CCCCCC/C=C/C(=O)NCC1(CC)COCOC1 [Compound (48), (E)-N-(5-ethyl-1,3-dioxan-5-ylmethyl)-2-nonenamide]
[3]
  pest or weed control at 2 %: ≥ 80%
[1]
  pest or weed control at 2 %: ≥ 80%

## CC1CC1C1CC1/C=C/C(=O)NCC1CCOCC1 (stereo not drawn) [Compound (53), (E)-N-(tetrahydropyran-4-ylmethyl)-3-(trans-2′-(trans-2″-methylcyclopropyl)cyclopropyl)-2-propenamide]
[2]
  pest or weed control at 500 ppm: 100%

## O=C(/C=C/CCCCCl)NCC1CCOCC1 [Compound (54), (E)-N-(tetrahydropyran-4-ylmethyl)-7-chloro-2-heptenamide]
[1]
  pest or weed control at 2 %: ≥ 80%
